Reference: patent EP4741383A1, “COMPOUND AND USE THEREOF AS ANTI-CANCER DRUG” (Tyligand Bioscience (Shanghai) Limited, priority 2023, dated 2025)

These compounds were tested against T1, CYP2D6 (Homo sapiens, UniProt P10635) (assay: CYP450 inhibition in human liver microsomes, CYP2D6). Details: pH 7.4, read-out: % CYP inhibition @ 10 µM 2D6.
T1 construct: tissue Corning or Xenotech; host or cells: human liver microsomes
Format: in vitro ADME
Source text: According to standard methods in the field for the study of cytochrome P450 enzyme systems, such as the method described in Kerns, Edward H. and Di Li et al., Drug-like Properties: Concepts, Structure Design and Methods: from ADME to Toxicity Optimization (2008), San Diego, Academic Press, and Lin, Tong et al., In Vitro Assessment of Cytochrome P450 Inhibition: Strategies for Increasing LC/MS-Based Assay Throughput Using a One-Point IC50 Method and Multiplexing High-Performance Liquid Chromatography (J. Pharm. Sci. 2007, 96 (9), 2485). The inhibitory effect of the disclosed compounds on the cytochrome P450 enzyme system was similarly examined below.
Human liver microsomes were purchased from Corning or Xenotech. The test compounds were evaluated by detecting the metabolism of substrates for different Cyp450 isoforms by human liver microsomes.
0.1 M potassium phosphate buffer (K-buffer, pH 7.4) was pre-warmed.
100 mM K-buffer was prepared by mixing 9.5 mL of stock solution A (1 M potassium dihydrogen phosphate, prepared by dissolving 136.5 g of potassium dihydrogen phosphate in 1 L of Milli-Q water) with 40.5 mL of stock solution B (1 M potassium hydrogen phosphate, prepared by dissolving 174.2 g of potassium hydrogen phosphate in 1 L of Milli-Q water). The total volume was adjusted to 500 mL with Milli-Q water, and the buffer was titrated to pH 7.4 using KOH or H3PO4.
Test compound solution and specific inhibitor solution (400× dilution) were prepared in a 96-well plate. For the test compound, 8 µL of 10 mM test compound was transferred into 12 µL of ACN. For specific inhibitors of CYP1A2, CYP2C9, and CYP2D6: 12 µL of 1 mM α-naphthoflavone, 10 µL of 40 mM sulfaphenazole, 10 µL of 10 mM quinidine, and 8 µL of DMSO were mixed. For specific inhibitors of CYP3A4, CYP2B6, CYP2C8, and CYP2C19: 8 µL of DMSO stock solution was added to 12 µL of ACN.
A 4× diluted NADPH solution was prepared by dissolving 66.7 mg of NADPH in 10 mL of 0.1 M K-buffer (pH 7.4). […]

T1 sequence (P10635 whole entry): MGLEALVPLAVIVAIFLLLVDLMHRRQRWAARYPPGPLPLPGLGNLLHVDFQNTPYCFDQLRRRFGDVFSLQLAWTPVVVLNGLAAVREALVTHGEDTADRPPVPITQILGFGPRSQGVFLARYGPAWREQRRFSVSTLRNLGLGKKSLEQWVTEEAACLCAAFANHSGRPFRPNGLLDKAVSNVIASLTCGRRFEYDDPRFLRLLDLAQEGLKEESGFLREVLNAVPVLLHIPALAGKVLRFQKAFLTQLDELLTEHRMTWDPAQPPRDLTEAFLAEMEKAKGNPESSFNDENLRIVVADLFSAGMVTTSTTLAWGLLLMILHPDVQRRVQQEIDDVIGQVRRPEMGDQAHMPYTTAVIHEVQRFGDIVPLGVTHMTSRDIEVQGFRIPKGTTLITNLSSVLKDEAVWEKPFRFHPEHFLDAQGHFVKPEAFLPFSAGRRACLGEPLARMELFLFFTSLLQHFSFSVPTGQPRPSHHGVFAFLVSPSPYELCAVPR

Row | Structure (SMILES) | inhibition at 10 min, 10 µM
1 | O=C(Nc1ccc(-c2cc3cc(F)c(-c4nnn[nH]4)cc3n2C2CCC2)cc1)C(=O)Nc1ccc(N2CCC(CO)CC2)cc1 [Example 23] | -5.43%
2 | CC1(n2c(-c3ccc(NC(=O)C(=O)Nc4ccc(N5CCC6(CCOC6)CC5)cc4)cc3)cc3cc(F)c(-c4nnn[nH]4)cc32)CCC1 [Example 68] | -4.07%
3 | O=C(Nc1ccc(-c2cc3cc(F)c(-c4nnn[nH]4)cc3n2C2CCC2)cc1)C(=O)Nc1ccc(N2CCC3(CCOC3)CC2)cc1 [Example 67] | -12.6%
